Laboratory results from PubChem BioAssay (NCI).
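Method: 48-hour compound exposure of cells in 96-well plates, five concentrations, linear interpolation of endpoints. GI50 is the concentration that inhibits growth by half. TGI marks complete inhibition of growth.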

Tests used:
Assay in all cases: growth of human tumour cells (NCI), 48 h
A549 NSCLC = system: A549 NSCLC
NCI-H522 lung = system: NCI-H522 lung
CAKI-1 renal = system: CAKI-1 renal
HCT-15 colon = system: HCT-15 colon
TK-10 renal = system: TK-10 renal
SK-OV-3 ovarian = system: SK-OV-3 ovarian
HCC-2998 colon = system: HCC-2998 colon
SR leukemia = system: SR leukemia
LOX IMVI melanoma = system: LOX IMVI melanoma
IGROV1 ovarian = system: IGROV1 ovarian

| Structure (SMILES) | TGI (A549 NSCLC) | TGI (NCI-H522 lung) | TGI (CAKI-1 renal) | TGI (HCT-15 colon) | TGI (TK-10 renal) | TGI (SK-OV-3 ovarian) | TGI (HCC-2998 colon) | TGI (SR leukemia) | TGI (LOX IMVI melanoma) | TGI (IGROV1 ovarian) | GI50 (A549 NSCLC) | GI50 (NCI-H522 lung) | GI50 (CAKI-1 renal) | GI50 (HCT-15 colon) | GI50 (TK-10 renal) | GI50 (SK-OV-3 ovarian) | GI50 (HCC-2998 colon) | GI50 (SR leukemia) | GI50 (LOX IMVI melanoma) | GI50 (IGROV1 ovarian) |
| --- | --- | --- | --- | --- | --- | --- | --- | --- | --- | --- | --- | --- | --- | --- | --- | --- | --- | --- | --- | --- |
| CN(C=O)/C=C/c1cc(O)ccc1O | > 100 µM | 9.37 µM | 38.9 µM | 65.8 µM | 54.1 µM | > 100 µM | > 100 µM | 51.1 µM | 45 µM | > 71.4 µM |  |  |  |  |  |  |  |  |  |  |
| CC/C=C\C/C=C\C[C@H](O)C/C=C1/C(=O)C=C[C@@H]1C/C=C\CCCC(=O)OC | 5.62 µM | 2.36 µM | 14.5 µM | 2.38 µM | 7.68 µM | 15 µM | 3.48 µM | 1.87 µM | 0.493 µM | 7.86 µM | 2.4 µM | 1.03 µM | 3.41 µM | 0.494 µM | 2.95 µM | 5.27 µM | 2.03 µM | 0.281 µM | 0.21 µM | 2.86 µM |
| CNC(=O)CN(CC(N)=O)C(N)=O | > 100 µM | > 100 µM | > 100 µM | > 100 µM | > 100 µM | > 100 µM | > 100 µM | > 100 µM | > 100 µM | > 100 µM |  |  |  |  |  |  |  |  |  |  |
| O=C1CN(/N=C/c2ccc(-c3ccc(F)cc3)o2)C(=O)N1 | > 100 µM | 85 µM | > 100 µM | > 100 µM | > 100 µM | > 100 µM | > 100 µM | 75.7 µM | > 100 µM | > 100 µM |  |  |  |  |  |  |  |  |  |  |
| CC1CC2(C)CC(=O)C1C1C(=O)N(CCN3CCCCC3)C(=O)C12 (configuration not stated) | > 100 µM | > 100 µM | > 100 µM | > 100 µM | > 100 µM | > 100 µM | > 100 µM | > 100 µM | > 100 µM | > 100 µM | > 100 µM | > 100 µM | > 100 µM | > 100 µM | > 100 µM | > 100 µM | > 100 µM | > 100 µM | > 100 µM | > 100 µM |
| COc1ccc(OC)c2c3c(ccc12)C(c1ccccc1)OC3=O (configuration not stated) | > 100 µM | > 100 µM | > 100 µM | > 100 µM | > 100 µM | > 100 µM | > 100 µM | > 100 µM | > 100 µM | > 100 µM |  |  |  |  |  |  |  |  |  |  |
| COC(=O)c1c(C)nc(C)c(NO)c1-c1ccccc1C(F)(F)F | > 100 µM | 33.1 µM | 43.3 µM | 32.3 µM | 37.4 µM | > 100 µM | > 100 µM | > 100 µM | > 100 µM | 35.6 µM |  |  |  |  |  |  |  |  |  |  |
| CCOC(=O)C(NC(=O)c1[nH]cnc1/N=N/N(C)C)C(C)C (configuration not stated) | > 100 µM | > 100 µM | > 100 µM | > 100 µM | > 100 µM | > 100 µM | > 100 µM | > 100 µM | > 100 µM | > 100 µM |  |  |  |  |  |  |  |  |  |  |
| CN1CCN(c2nc(-c3ccncc3)nc3sc4c(c23)CCCCCC4)CC1 | 25.3 µM | 24.6 µM | 19.4 µM | 24.3 µM | 20.5 µM | 24.6 µM | 13.2 µM | 12.2 µM | 20.5 µM | 22 µM | 11.4 µM | 12 µM | 3.44 µM | 11.3 µM | 6.71 µM | 12.2 µM | 3.91 µM | 2.81 µM | 8.23 µM | 8.16 µM |
| Cc1c(C(=O)CSc2nc3ccccc3[nH]2)c(=O)n(-c2ccccc2)n1C | > 100 µM | > 100 µM | > 100 µM | > 100 µM | > 100 µM | > 100 µM | > 100 µM | > 100 µM | > 100 µM | > 100 µM |  |  |  |  |  |  |  |  |  |  |
| CC1CCC2N(C1)CC1C3(O)CC45OC6(O)C(O)CCC4(C)C6CCC5C3(O)CC(O)C1(O)C2(C)O (configuration not stated) | > 100 µM | > 100 µM | > 100 µM | > 100 µM | > 100 µM | > 100 µM | > 100 µM | > 100 µM | > 100 µM | > 100 µM |  |  |  |  |  |  |  |  |  |  |
| COc1nc(NC2OC(COC(C)=O)C(OC(C)=O)C(OC(C)=O)C2OC(C)=O)c(-c2csc(N)n2)c(=O)n1C (configuration not stated) | > 100 µM | > 100 µM | > 100 µM | > 100 µM | > 100 µM | > 100 µM |  | > 100 µM | > 100 µM | > 100 µM |  |  |  |  |  |  |  |  |  |  |
| C[N+](C)(C)CC1CCCC(C[N+](C)(C)C)C1O (configuration not stated) | > 100 µM | > 100 µM | > 100 µM | > 100 µM | > 100 µM | > 100 µM | > 100 µM | > 100 µM | > 100 µM | > 100 µM |  |  |  |  |  |  |  |  |  |  |
| O=C(NCCCCCCCNC(=O)OCc1ccc2c(Cl)cc(Cl)c(O)c2n1)OCc1ccc2c(Cl)cc(Cl)c(O)c2n1 | 3.76 µM | 1.15 µM | 1.55 µM | 0.542 µM | 2.73 µM | 14 µM | 3.14 µM | 1.41 µM | 0.379 µM | 1.41 µM | 1.85 µM | 0.303 µM | 0.378 µM | 0.221 µM | 1.4 µM | 3.93 µM | 1.65 µM | 0.267 µM | 0.187 µM | 0.561 µM |
| O=C(c1ccc(Cl)cc1)C1OC12C(=O)Nc1ccccc12 (configuration not stated) | 58.6 µM | 3.97 µM | 20.6 µM | 11.2 µM | 35.2 µM | 60.4 µM | 34.1 µM | 3.22 µM | 4.67 µM | 39.1 µM |  |  |  |  |  |  |  |  |  |  |
| COc1cccc(/C=C/C(=O)c2cc3c(N)c(C(=O)Nc4cccc5ccccc45)sc3nc2C)c1 | > 50 µM | 3.06 µM | 6.34 µM | 1.86 µM | > 50 µM | > 50 µM | 2.79 µM | > 50 µM | 1.69 µM | 2.78 µM | 1.46 µM | 0.435 µM | 1.6 µM | 0.624 µM | 1.78 µM | 2.24 µM | 1.14 µM | 0.296 µM | 0.826 µM | 1.05 µM |
| COc1cc([N+](=O)[O-])c2ncccc2c1[N+](=O)[O-] | 34.5 µM | 2.62 µM | 4 µM | 21.6 µM | 19.6 µM | 25.4 µM | 17.8 µM | > 100 µM | 8.29 µM |  | 17.8 µM | 1.13 µM | 1.65 µM | 5.39 µM | 7.04 µM | 12.6 µM | 4.82 µM | 3.33 µM | 2.31 µM |  |
